Laboratory results from article PMC4681141, “Antiplasmodial activity, in vivo pharmacokinetics and anti-malarial efficacy evaluation of hydroxypyridinone hybrids in a mouse model” (Malaria Journal, 2015).
Read-outs that look alike come from different tables or passages of the source.

Tests used:
[1] = system: P. falciparum chloroquine-sensitive and -resistant strains; format: cell-based, Plasmodium falciparum; details: highest CQR IC50 value / lowest CQS IC50 value
Description: This value provides a quantitative measurement of the antiplasmodial activity against CQR strains relative to that against CQS strains. The higher the RI value, the higher the level of resistance.

[2] = system: P. falciparum Dd2; experiment: In vitro antiplasmodial pLDH assay, chloroquine-resistant strain Dd2; format: cell-based; details: Plasmodium falciparum, read-out: IC50 against Dd2
Experimental: (§1) The parasites were continuously cultured in vitro according to the method described by Trager and Jensen but with modifications. The cultures were maintained at 37 °C in O-positive (O^+) human erythrocytes in complete culture medium, which contained RPMI 1640 (Gibco-BRL Laboratories) growth medium supplemented with 25 mM 4-(2-hydroxyethyl)piperazine-1-ethanesulfonic acid (HEPES) (Sigma-Aldrich Chemical Company) buffer, 22 mM glucose (Sigma), 5 g/l albumax (Gibco-BRL Laboratories), 25 mM sodium carbonate (Sigma) and 0.3 mM hypoxanthine (Sigma). In order to control microbial contamination […] gentamicin (Sigma) was added to the culture medium, and to obtain a loosely synchronous ring stage, 5 % sterile aqueous D-sorbitol (Sigma) was used. The antiplasmodial assay was initiated with the parasites in the trophozoite stage and with a parasitaemia and haematocrit of 2 %.
(§2) Non-parasitized erythrocytes were used as a negative control and parasitized erythrocytes, without any test compound, were used as positive control. A full day dose–response was performed for all compounds to determine the concentration inhibiting 50 % of parasite growth (IC50 value). The plates were incubated for 48 h at 37 °C in a gassing chamber containing a mixture of 5 % CO2, 3 % O2 and 92 % […]. In order to quantify parasite viability and to determine the effect of the compounds on the parasite, a parasite lactate dehydrogenase (pLDH) assay was used as described by Makler et al., but with modifications.

[3] = system: P. falciparum K1; experiment: In vitro antiplasmodial pLDH assay, chloroquine-resistant strain K1; format: cell-based; details: Plasmodium falciparum, read-out: IC50 against K1
Experimental: as §1, §2

[4] = system: Plasmodium berghei (ANKA strain); experiment: In vivo anti-malarial efficacy, Peters' 4-day test; set-up: species or system C57BL/6 mice; details: for % reduction of parasitemia Day 9: vs placebo
Experimental: The chloroquine-sensitive Plasmodium berghei (ANKA strain) was used to assess in vivo anti-malarial efficacy of the test compounds. The parasites were maintained in a C57BL/6 mouse by inoculation with 250 µl of a 1:1 (v/v) suspension of erythrocytes infected with P. berghei in phosphate buffered saline (PBS). On the day of the experiment the host mouse was anaesthetized intraperitoneally with a mixture of ketamine (120 mg/kg) and xylazine (16 mg/kg). Whole blood from the host mouse was drawn by cardiac puncture into a Vacuette® heparin tube and a suspension of P. berghei parasitized erythrocytes (1 × 10^7) in PBS was prepared and the test mice were infected with 200 µl of this suspension intraperitoneally.
Evaluation of the curative potential of the test compounds was performed using Peters’ 4-day test as described. The mice were dosed orally at 20 and 40 mg/kg and intravenously at 4 and 8 mg/kg 2 h post-infection and for three consecutive days (D0 to D3). On the first day (D0), blood samples were collected serially from each mouse at 0.5, 1, 3, and 7 h post-dosing in order to provide quantitative measurements of drug exposure which is needed for the sound interpretation of the efficacy of the anti-malarials. […] The mice were also dosed orally with PBS as a control. The parasitaemia was determined from the […] (D4) by preparing thin blood films from the tail of each mouse and the smears were fixed with methanol and stained with Giemsa. This was repeated every 2–3 days to monitor the efficacy of the test compounds. The formula used to calculate % parasitaemia and % reduction is described below, respectively. The data for % parasitaemia and % reduction of parasitaemia is presented in Table 4. %Parasitaemia =No.ofparasitizedRBCoutof500erythrocytes/Totalno.ofRBCcounted×100 %Reduction =Parasitamiaofplacebo-Parasitamiaoftestcompound/Parasitamiaofplacebo×100

[5] = system: P. falciparum 3D7; experiment: In vitro antiplasmodial pLDH assay, chloroquine-sensitive strain 3D7; format: cell-based; details: Plasmodium falciparum, read-out: IC50 against 3D7
Experimental: as §1, §2

[6] = Pharmacokinetic study in uninfected C57BL/6 mice (LC-MS/MS of blood); format: in vivo; details: for clearance / Vd: iv; for Vd: read-out: Vss; for AUC(0-inf) / half-life: mouse; for blood levels after oral dosing: oral 20 mg/kg, uninfected mice
Experimental: A comprehensive pharmacokinetic (PK) study of compound 1 and 2 was performed on 10-week old male and female C57BL/6 mice (20–30 g) obtained from the University of Cape Town Medical School Animal Unit. The mice were housed in ventilated cages at room temperature (approximately 22 °C) with constant supply of food and water and were monitored twice daily. The study was authorized by the Faculty of Health Science Animal Research Ethics Committee before commencement: Reference No. 012/020. All the work was performed according to the guidelines established by Austin et al.. […] In each experiment a group of five animals were dosed orally (10 ml/kg) at 20 mg/kg and intravenously (5 ml/kg) via the dorsal penile vein at 4 mg/kg under anaesthesia. For oral dosage, a gavage needle was used for the administration of test compounds directly into the lower oesophagus or stomach. […] Lithium heparin-coated MiniCollect® Plasma Tubes (Lasec, South Africa) were used to collect the blood samples. The collected blood samples were placed on ice immediately after sampling, and were frozen at −80 °C until analysis. The blood samples stored at −80 °C were thawed at room temperature and then mixed by vortex to ensure homogeneity. Twenty µl of blood was mixed with 50 µl Milli-Q water (Millipore, USA) and 150 µl acetonitrile (Merck). The mixture was vortexed for 15 s, sonicated for 10 min and centrifuged at 13,000g for 5 min. The supernatant was transferred to a flat-bottomed glass insert and placed in a glass vial and placed in the autosampler for analysis. A liquid chromatography–mass spectrometry (LC/MS/MS) system was employed for the quantification of the compounds in mouse blood. The LC system employed was an ultra-fast liquid chromatography (UFLC) system (Shimadzu) and the separation of the compounds was performed on a Phenomenex, Luna 5 μm PFP (2), 100 Å, 50 mm × 2 mm analytical column. The mobile phase A consisted of 0.1 % formic acid in water (v/v) and mobile phase B consisted of acetonitrile. The flow rate was set at 500 µl/min and the temperature of the column was maintained at 40 °C. […] The detection of the compounds was performed on an AB Sciex 3200 Q-Trap mass spectrometer which was operated at unit resolution in the multiple reaction monitoring (MRM) mode. The calibration range for all the compounds was between 7.8 and 1000 ng/ml and the accuracy (% Nom) for the calibration curves was between 90.3 and 104.0 %. […] Non-compartmental analysis was performed on each individual set of data using PK Solutions 2.0 Pharmacokinetic Analysis Software (Summit Research Services, Montrose, USA). The following PK parameters were calculated: apparent terminal half-life [t½ (min)], total exposure [AUC0–α (µM min)], volume of distribution (l/kg) and plasma clearance [CL (l/min/kg)].

[7] = Drug exposure in P. berghei-infected mice (blood concentrations on D0); format: in vivo, C57BL/6 mice; details: oral 20 and 40 mg/kg
[8] = system: P. falciparum D10; experiment: In vitro antiplasmodial pLDH assay, chloroquine-sensitive strain D10; format: cell-based; details: Plasmodium falciparum, read-out: IC50 against D10
Experimental: as §1, §2

[9] = Toxicity observed in dosed mice; format: in vivo; details: dosed orally and intravenously
Experimental: They both presented poor PK properties following oral administration. However, the LC–MS/MS assay only detected the parent compound and no assays were conducted to measure or identify any possible metabolites. The decision to perform efficacy studies was based on the possibility that compounds 1 and 2 may have high first pass effect which may cause low bioavailability. After the infected mice were dosed orally and intravenously with compound 1 and 2, the blood concentrations were measured in P. berghei-infected mice at different time intervals to measure the exposure of the infected mice to the drug. […] High toxicity was also detected when dosed orally and intravenously. The PK studies were only conducted for 9 h, and therefore the symptoms of toxicity were not severe. However, with efficacy studies the mice are dosed every day for 4 days, and this might cause distress to the mice because the toxic effect of the drug will be more severe. The efficacy study for compound 2 is not reported in this paper.

[10] = set-up: method as in earlier work; details: mice; ref 25 (Salako); cited from earlier work
[11] = chloroquine-resistant strain Dd2, 48 h, pLDH, mean of three independent experiments
[12] = chloroquine-resistant strain K1, 48 h, pLDH, mean of three independent experiments
[13] = chloroquine-sensitive strain 3D7, 48 h, pLDH, mean of three independent experiments
[14] = both sexes, C57BL/6, mouse, whole blood, 4 mg/kg, intravenous 4 mg/kg, uninfected C57BL/6 mice, blood
[15] = both sexes, whole blood, intravenous 4 mg/kg, uninfected C57BL/6 mice, blood
[16] = intravenous 4 mg/kg, uninfected C57BL/6 mice, blood, 4 mg/kg
[17] = chloroquine-sensitive strain D10, 48 h, pLDH, mean of three independent experiments
[18] = Oral 10 mg/kg/day, 4 days (reference drug)

O=c1cc(CNCCCCCCNc2ccnc3cc(Cl)ccc23)n(C2CC2)cc1OCc1ccccc1 [Compound 1]
RI (resistance index) [1]: 10.7 | IC50 [2, 11]: 463 ± 120 nM | IC50 [3, 12]: 505 ± 100 nM | Average % parasitemia Day 4 ([4]; IV 4 mg/kg/day, 4 days): 0.4 ± 0.4% | Average % parasitemia Day 6 ([4]; IV 4 mg/kg/day, 4 days): 1.8 ± 1.4% | Average % parasitemia Day 9 ([4]; IV 4 mg/kg/day, 4 days): 8.1 ± 5% | % reduction of parasitemia Day 9 ([4]; IV 4 mg/kg/day, 4 days, 4 mg/kg/day): 61.9 ± 26% | % reduction of parasitemia Day 9 ([4]; IV 4 mg/kg/day, 4 days, listed as compound 1, 4 mg/kg/day): 62% | Average % parasitemia Day 4 ([4]; IV 8 mg/kg/day, 4 days): 0% | Average % parasitemia Day 6 ([4]; IV 8 mg/kg/day, 4 days): 0.9 ± 0.9% | Average % parasitemia Day 9 ([4]; IV 8 mg/kg/day, 4 days): 5.1 ± 1.7% | % reduction of parasitemia Day 9 ([4]; IV 8 mg/kg/day, 4 days, 8 mg/kg/day): 82.9 ± 2.5% | % reduction of parasitemia Day 9 ([4]; IV 8 mg/kg/day, 4 days, listed as compound 1, 8 mg/kg/day): 83% | Average % parasitemia Day 4 ([4]; Oral 20 mg/kg/day, 4 days): 5.3 ± 3.9% | Average % parasitemia Day 6 ([4]; Oral 20 mg/kg/day, 4 days): 22.7 ± 10% | Average % parasitemia Day 9 ([4]; Oral 20 mg/kg/day, 4 days): 24.2 ± 5.6% | % reduction of parasitemia Day 9 ([4]; Oral 20 mg/kg/day, 4 days): 3.7 ± 5.6% | Average % parasitemia Day 4 ([4]; Oral 40 mg/kg/day, 4 days): 5.9 ± 2% | Average % parasitemia Day 6 ([4]; Oral 40 mg/kg/day, 4 days): 10.7 ± 5% | Average % parasitemia Day 9 ([4]; Oral 40 mg/kg/day, 4 days): 48.6 ± 12% | % reduction of parasitemia Day 9 ([4]; Oral 40 mg/kg/day, 4 days): −93.8 ± 49.3% | parasitaemia on day 4 in mice dosed orally ([4]; oral groups (20 and 40 mg/kg/day), day 4): ~5% | IC50 [5, 13]: 64 ± 20 nM | clearance [6, 14]: 28 mL/min/kg | Vd [6, 14]: 20 L/kg | concentration at 9 h ([6]; both sexes, C57BL/6, mouse, whole blood, intravenous 4 mg/kg, 9 h post-dosing, read-out: blood level after 9 h): 160 nM | AUC(0-inf) [6, 15]: 3.27 µM·h | half-life [6, 15]: 4.3 ± 1.02 h | CL [6, 16]: 27.6 ± 8 mL/min/kg | Vss [6, 16]: 20.1 ± 6 L/kg | oral bioavailability ([6]; mice, oral dosing, in words): poor oral bioavailability | blood levels after oral dosing [6]: below the LOQ | blood concentration levels in infected mice dosed orally [7]: below the detection level | IC50 [8, 17]: 47 ± 10 nM

CCc1c(OCc2ccccc2)c(=O)ccn1CCCCCCNc1ccnc2cc(Cl)ccc12 [Compound 2]
RI (resistance index) [1]: 2.2 | IC50 [2, 11]: 76 ± 10 nM | IC50 [3, 12]: 89 ± 10 nM | toxicity [9]: High toxicity | IC50 [5, 13]: 41 ± 20 nM | clearance [6, 14]: 366 ± 46.6 mL/min/kg | Vd [6, 14]: 154.1 ± 1 L/kg | concentration at 2 h ([6]; both sexes, C57BL/6, mouse, whole blood, intravenous 4 mg/kg, 2 h post-dosing, read-out: blood level after 2 h): 30 nM | AUC(0-inf) [6, 15]: 0.42 µM·h | half-life [6, 15]: 0.7 ± 0.2 h | blood levels after oral dosing [6]: below the LOQ | blood concentration levels in infected mice dosed orally [7]: below the detection level | IC50 [8, 17]: 122 ± 30 nM

CCN(CC)CCCC(C)Nc1ccnc2cc(Cl)ccc12 (stereo not drawn) [Chloroquine, reference compound]
IC50 ([2]; DD2, 48 h): 180 ± 10 nM | IC50 ([3]; K1, 48 h): 279 ± 2 nM | Average % parasitemia Day 4 [4, 18]: 0% | Average % parasitemia Day 6 [4, 18]: 0% | Average % parasitemia Day 9 [4, 18]: 2 ± 1.6% | % reduction of parasitemia Day 9 [4, 18]: 92.0 ± 0.4% | IC50 ([5]; 3D7, 48 h): 19 nM | IC50 ([8]; D10, 48 h): 23 nM | half-life [10]: 7 h | oral bioavailability [10]: 79–90%
